Test results published in patent US6590140B1, “Metal-regulated transporters and uses therefor” (Trustees of Dartmouth College, priority 1996, dated 2003).

Experiments:
ZIP3 = molecular target: T1, ZIP3 (Arabidopsis thaliana, UniProt Q9SLG3); experiment: Zn uptake by ZHY3 containing ZIP3; format: cell-based; details: ZIP3 containing ZHY3 cells, 5 minute time course using 10 mM Zn
T1 construct: expressed in transfected cells; host or cells: S. cerevisiae ZHY3 (zrt1::LEU2 zrt2::HIS3) with an Arabidopsis cDNA clone in pFL61
T1 sequence (Q9SLG3 26-339): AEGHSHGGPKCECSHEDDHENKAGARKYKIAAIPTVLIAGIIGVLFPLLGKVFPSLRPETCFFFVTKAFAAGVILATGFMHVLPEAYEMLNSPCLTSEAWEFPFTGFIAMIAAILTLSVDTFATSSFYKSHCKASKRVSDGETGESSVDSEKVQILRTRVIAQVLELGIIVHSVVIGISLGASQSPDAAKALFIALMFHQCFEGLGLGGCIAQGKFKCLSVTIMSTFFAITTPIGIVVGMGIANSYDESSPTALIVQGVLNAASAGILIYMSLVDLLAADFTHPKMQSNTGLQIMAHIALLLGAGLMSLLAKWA
Method: Zinc uptake assays were performed as described previously for iron uptake (Eide et al. (1992) J. Biol. Chem. 267:20774-20781) except that ^65ZnCl2 (Amersham) and LZM-EDTA were substituted for ^59FeCI3 and LIM-EDTA, respectively. Cells were incubated for 5 minutes in LZM-EDTA plus the indicated concentration of ^65Zn, collected on glass fiber filters (Schleicher and Schuell), washed with 10 ml ice-cold SSW (1 mM EDTA, 20 mM trisodium citrate, 1 mM KH2PO4, 1 mM CaCl2, 5 mM MgSO4, 1 mM NaCl pH 4.2), and cell-associated radioactivity was measured by liquid scintillation counting. […] Michaelis-Menten kinetic values were determined using […] software (Intellikinetics, Princeton, N.J.). […] The statistical significance of the differences of values relative to controls was determined with one-way analysis of variance (ANOVA) followed by a Dunnett multiple comparison test. β-galactosidase activity was assayed in cells harvested at an OD600 of 0.5-2.0 as described by Guarente (Guarente, L. (1983) Methods Enzymol. 101:181-191) and activity is expressed as the change in absorbance at 420 nm×1000 divided by (min×ml of culture used×OD600 of the culture). Cell-associated zinc was measured in parallel cultures supplemented with tracer amounts of ^65Zn (10 μM) and nonradioactive zinc to the indicated final concentration. […]

zrt1zrt2 (ZHY3) cells = experiment: Zinc-limited growth, zrt1zrt2 mutant yeast; format: cell-based, Saccharomyces cerevisiae
Method: Strains used were DY1457 (MATα ade6 can1 his3 leu2 trp1 ura3), ZHY1 (AMTα ade6 can1 his3 leu2 trp1 ura3 zrt1::LEU2), ZHY2 (MATα ade6 can1 his3 leu2 trp1 ura3 zrt2::HIS3), and ZHY3 (MATα ade6 can1 his3 leu2 trp1 ura3 zrt1::LEU2 zrt2::HIS3). Yeast were grown in YP or SD media (Sherman et al. (1986) Methods in Yeast Genetics, Cold Spring Harbor Laboratory, Cold Spring Harbor, N.Y.) supplemented with necessary auxotrophic requirements and either 2% glucose or 2% galactose. Zinc-limiting YP and SD agar plates contained either bathophenanthroline disulfonate (BPS, 200 μM) or EDTA (1 mM), respectively. A liquid zinc-limiting medium (low zinc medium, LZM) was prepared in the same manner as low iron medium (LIM) (Eide and Guarente (1992) J. Gen. Microbiol. 138:347-354) except that the […]. LZM is similar in composition to SD medium with two modifications essential to controlling zinc availability. First, 1 mM EDTA is added to provide buffering for the concentration of free metal ions. Second, the medium is pH-buffered at 4.2 with 20 mM citrate to prevent pH changes that could alter the metal binding ability of EDTA. LZM was also prepared without EDTA ([…]) which is less zinc-limiting because the predominant chelator in this medium, citrate, binds zinc with less affinity than does EDTA. The concentrations of free (i.e. unchelated) zinc were calculated using MAXCHELATOR software (Chris Patton, Stanford University). Cell number in liquid cultures was determined by measuring the absorbance of cell suspensions at 600 nm (OD600) and converting to cell number with a standard curve.
To further assess the role of the low affinity system as a source of zinc, growth of wild type and zrt2 cells in a zinc-limiting medium, LZM, supplemented with increasing amounts of zinc was examined. The same strains as in FIG. 15 were grown for six hours in SD glucose medium, harvested, washed in LZM, and reinoculated into either LZM (FIG. 15A) or LZM-EDTA (FIG. 15B) supplemented with the indicated concentrations of ZnCl2 ([Zn]T). These cultures were then grown for 16 hours at 30° C. prior to cell number determination. Number of cell divisions are plotted against [Zn]T and the calculated free zinc concentration ([Zn]F). The metal ion buffering capacity of EDTA in LZM is exceeded at concentrations above 100 μM total zinc whereas the metal buffering capacity of citrate in LZM-EDTA maintains a linear relationship between [Zn]T and [Zn]F to concentrations greater than 1 mM. It has been shown previously that the zrt1 mutant requires greater than 500 μM total zinc ([Zn]T) in LZM to undergo its maximum number of cell divisions and this value corresponds to a calculated free (i.e. unchelated) zinc concentration ([Zn]F) of approximately 500 μM. […]

For [Zn+2] [zinc], the Zn uptake rate (ZIP3) was 134 fmol/min/10^6 cells, the “calculated free zinc [Zn]F for maximum number of divisions” value (zrt1zrt2 (ZHY3) cells; zrt1zrt2, LZM-EDTA, 16 hours) was ~6 µM and the “total zinc for maximum number of divisions” value (zrt1zrt2 (ZHY3) cells; zrt1zrt2, LZM-EDTA, 16 hours) was 500 µM. The “zinc required in the medium relative to the wild type strain” value (zrt1zrt2 (ZHY3) cells; zrt1zrt2 vs wild type) was “greater than 10^5 fold” and the “zinc required for growth relative to the zrt1 strain” value (zrt1zrt2 (ZHY3) cells; zrt1zrt2 vs zrt1) was “at least 1000 fold”.
